Assay results: patent US4636492A, “Inhibition of viral protease activity by peptide halomethyl ketones” (priority 1984, dated 1987)
Numbered stars: 1 amine (or outer) side, 2 acyl side, 3 side chain; on linkers, the order of the positions; unused ones are H or OH. Square brackets hold non-standard residues; d marks the D form. Peptide text beside a SMILES is read from it. * marks the point of attachment. ξ: configuration not given here. Dansyl = CN(C)c1cccc2c(S(=O)(=O)*)cccc12; Suc = O=C(CCC(=O)[*:2])[*:1]; MeOSuc = COC(=O)CCC(=O)*; Cbz = O=C(OCc1ccccc1)*; Boc = CC(C)(C)OC(=O)*; ξL = CC(C)CC(N)C(=O)O; ξV = CC(C)C(N)C(=O)O; CH2Cl = ClC*

Tested on: Human rhinovirus type 1A
Assay: Plaque inhibition assay
Type: cell-based
Conditions: HeLa cells, concentration giving 90% plaque reduction

SMILES | Antiviral activity, as scored by 90% plaque reduction
CC(C)C[C@H](NC(=O)[C@H](CC(C)C)NC(=O)CNC(=O)[C@H](Cc1ccccc1)NC(=O)OCc1ccccc1)C(=O)CCl [Example 12, N-carbobenzoxy-L-phenylalanyl-L-glycyl-L-leucyl-L-leucine chloromethyl ketone] (Cbz-FGLL-CH2Cl) | 1 µg/mL

Target: T1, subtilisin BPN' (Bacillus amyloliquefaciens, UniProt P00782)
T1 sequence (P00782 108-382): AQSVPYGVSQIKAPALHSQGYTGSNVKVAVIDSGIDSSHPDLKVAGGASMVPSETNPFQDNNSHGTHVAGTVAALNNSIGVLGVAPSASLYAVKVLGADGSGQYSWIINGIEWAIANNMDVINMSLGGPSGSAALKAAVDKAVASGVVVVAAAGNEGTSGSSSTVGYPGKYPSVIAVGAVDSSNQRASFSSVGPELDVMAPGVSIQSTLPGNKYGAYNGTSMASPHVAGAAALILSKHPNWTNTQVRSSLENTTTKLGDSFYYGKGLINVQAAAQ
Assay: not given
Conditions: among a series of peptide chloromethyl ketones; cited from earlier work

SMILES | Inhibition of subtilisin BPN' (relative rate)
CC(=O)N[C@@H](Cc1ccccc1)C(=O)NCC(=O)N[C@@H](C)C(=O)NC(CC(C)C)C(=O)CCl (stereo partly drawn) [Example 2, acetyl-L-phenylalanyl-L-glycyl-L-alanyl-L-leucyl chloromethyl ketone] (Ac-FGA[ξL]-CH2Cl) | fastest inhibitor

Target: chymotrypsin (Bos taurus, UniProt P00766)
Assay: not given
Conditions: inhibitor concentration of 600 μg/mL; cited from earlier work

SMILES | Inhibition of chymotrypsin
CC(=O)N[C@@H](CC(C)C)C(=O)N[C@@H](CC(C)C)C(=O)N[C@@H](Cc1ccccc1)C(C)=O [Ac-Leu-Leu-PheCH3] | no inhibition was observed

Tested on: human poliomyelitisvirus type 2
Assay: not given
Type: cell-based
Conditions: not given

SMILES | Activity (protease-inhibiting activity)
CC(C)C[C@H](NC(=O)[C@H](C)NC(=O)CNC(=O)[C@H](Cc1ccccc1)NC(=O)OCc1ccccc1)C(=O)CCl [Example 1, Z--Phe--Gly--Ala--LeuCH2 Cl] (Cbz-FGAL-CH2Cl) | +++ (key: -: no activity; +/-: low activity; +: active at 100 μg/mL; ++: active at 50 μg/mL; +++: active at 10 μg/mL; ++++: active at <5 μg/mL)
CC(=O)N[C@@H](Cc1ccccc1)C(=O)NCC(=O)N[C@@H](C)C(=O)NC(CC(C)C)C(=O)CCl (stereo partly drawn) [Example 2, acetyl-L-phenylalanyl-L-glycyl-L-alanyl-L-leucyl chloromethyl ketone] (Ac-FGA[ξL]-CH2Cl) | +++ (key: -: no activity; +/-: low activity; +: active at 100 μg/mL; ++: active at 50 μg/mL; +++: active at 10 μg/mL; ++++: active at <5 μg/mL)
CC(C)CC(NC(=O)[C@H](C)NC(=O)CNC(=O)[C@H](Cc1ccccc1)NC(=O)CCC(=O)O)C(=O)CCl (stereo partly drawn) [Example 3, Suc--Phe--Gly--Ala--LeuCH2 Cl] (Suc-FGA[ξL]-CH2Cl) | +++ (key: -: no activity; +/-: low activity; +: active at 100 μg/mL; ++: active at 50 μg/mL; +++: active at 10 μg/mL; ++++: active at <5 μg/mL)
COC(=O)CCC(=O)N[C@@H](Cc1ccccc1)C(=O)NCC(=O)N[C@@H](C)C(=O)N[C@@H](CC(C)C)C(=O)CCl [Example 4, methoxy-succinyl-L-phenylalanyl-L-glycyl-L-alanyl-L-leucyl chloromethyl ketone] (MeOSuc-FGAL-CH2Cl) | +++ (key: -: no activity; +/-: low activity; +: active at 100 μg/mL; ++: active at 50 μg/mL; +++: active at 10 μg/mL; ++++: active at <5 μg/mL)
CC(C)C[C@H](NC(=O)[C@H](C)NC(=O)CNC(=O)[C@H](Cc1ccccc1)NS(=O)(=O)c1cccc2c(N(C)C)cccc12)C(=O)CCl [Example 5, DNS--Phe--Gly--Ala--LeuCH2 Cl] (Dansyl-FGAL-CH2Cl) | +++ (key: -: no activity; +/-: low activity; +: active at 100 μg/mL; ++: active at 50 μg/mL; +++: active at 10 μg/mL; ++++: active at <5 μg/mL)
CC(C)C[C@H](NC(=O)[C@H](C)NC(=O)CNC(=O)[C@H](Cc1ccccc1)Nc1ccc([N+](=O)[O-])cc1[N+](=O)[O-])C(=O)CCl [Example 6, DNP--Phe--Gly--Ala--LeuCH2 Cl] | +++ (key: -: no activity; +/-: low activity; +: active at 100 μg/mL; ++: active at 50 μg/mL; +++: active at 10 μg/mL; ++++: active at <5 μg/mL)
CC(C)C[C@H](NC(=O)[C@H](C)NC(=O)CNC(=O)OC(C)(C)C)C(=O)CCl [Example 7, Boc--Gly--Ala--LeuCH2 Cl] (Boc-Gly-Ala-Leu-CH2Cl) | ++ (key: -: no activity; +/-: low activity; +: active at 100 μg/mL; ++: active at 50 μg/mL; +++: active at 10 μg/mL; ++++: active at <5 μg/mL)
CC(C)C[C@H](NC(=O)[C@H](C)NC(=O)CNC(=O)[C@H](CC(C)C)NC(=O)OCc1ccccc1)C(=O)CCl [Example 8, Z--Leu--Gly--Ala--LeuCH2 Cl] (Cbz-LGAL-CH2Cl) | +++ (key: -: no activity; +/-: low activity; +: active at 100 μg/mL; ++: active at 50 μg/mL; +++: active at 10 μg/mL; ++++: active at <5 μg/mL)
CC(C)C[C@H](NC(=O)CNC(=O)CNC(=O)[C@H](Cc1ccccc1)NC(=O)OCc1ccccc1)C(=O)CCl [Example 9, Z--Phe--Gly--Gly--LeuCH2 Cl] (Cbz-FGGL-CH2Cl) | +++ (key: -: no activity; +/-: low activity; +: active at 100 μg/mL; ++: active at 50 μg/mL; +++: active at 10 μg/mL; ++++: active at <5 μg/mL)
CC(C)CC(NC(=O)C(C)NC(=O)CNC(=O)C(Cc1ccccc1)NC(=O)OCc1ccccc1)C(=O)CBr (stereo not drawn) [Example 10, Z--Phe--Gly--Ala--LeuCH2 Br] | +++ (key: -: no activity; +/-: low activity; +: active at 100 μg/mL; ++: active at 50 μg/mL; +++: active at 10 μg/mL; ++++: active at <5 μg/mL)
CC(C)C(NC(=O)[C@H](C)NC(=O)CNC(=O)[C@H](Cc1ccccc1)NC(=O)OCc1ccccc1)C(=O)CCl (stereo partly drawn) [Example 11, Z--Phe--Gly--Ala--ValCH2 Cl] (Cbz-FGA[ξV]-CH2Cl) | ++ (key: -: no activity; +/-: low activity; +: active at 100 μg/mL; ++: active at 50 μg/mL; +++: active at 10 μg/mL; ++++: active at <5 μg/mL)
CC(C)C[C@H](NC(=O)[C@H](CC(C)C)NC(=O)CNC(=O)[C@H](Cc1ccccc1)NC(=O)OCc1ccccc1)C(=O)CCl [Example 12, N-carbobenzoxy-L-phenylalanyl-L-glycyl-L-leucyl-L-leucine chloromethyl ketone] (Cbz-FGLL-CH2Cl) | ++++ (key: -: no activity; +/-: low activity; +: active at 100 μg/mL; ++: active at 50 μg/mL; +++: active at 10 μg/mL; ++++: active at <5 μg/mL)
CC(C)CC(NC(=O)[C@H](C)NC(=O)[C@H](CC(C)C)NC(=O)[C@H](Cc1ccccc1)NC(=O)OCc1ccccc1)C(=O)CCl (stereo partly drawn) [Example 13, Z--Phe--Leu--Ala--LeuCH2 Cl] (Cbz-FLA[ξL]-CH2Cl) | ++ (key: -: no activity; +/-: low activity; +: active at 100 μg/mL; ++: active at 50 μg/mL; +++: active at 10 μg/mL; ++++: active at <5 μg/mL)
CC(C)C[C@H](NC(=O)[C@H](Cc1ccccc1)NC(=O)CNC(=O)[C@H](Cc1ccccc1)NC(=O)OCc1ccccc1)C(=O)CCl [Example 14, Z--Phe--Gly--Phe--LeuCH2 Cl] (Cbz-FGFL-CH2Cl) | ++ (key: -: no activity; +/-: low activity; +: active at 100 μg/mL; ++: active at 50 μg/mL; +++: active at 10 μg/mL; ++++: active at <5 μg/mL)
CC(C)C[C@H](NC(=O)[C@H](CO)NC(=O)CNC(=O)[C@H](Cc1ccccc1)NC(=O)OCc1ccccc1)C(=O)CCl [Example 15, Z--Phe--Gly--Ser--LeuCH2 Cl] (Cbz-FGSL-CH2Cl) | ++ (key: -: no activity; +/-: low activity; +: active at 100 μg/mL; ++: active at 50 μg/mL; +++: active at 10 μg/mL; ++++: active at <5 μg/mL)
CC(C)C[C@H](NC(=O)[C@@H]1CCCN1C(=O)CNC(=O)[C@H](Cc1ccccc1)NC(=O)OCc1ccccc1)C(=O)CCl [Example 16, Z--Phe--Gly--Pro--LeuCH2 Cl] (Cbz-FGPL-CH2Cl) | ++ (key: -: no activity; +/-: low activity; +: active at 100 μg/mL; ++: active at 50 μg/mL; +++: active at 10 μg/mL; ++++: active at <5 μg/mL)
CC[C@H](C)[C@H](NC(=O)[C@H](C)NC(=O)CCC(=O)OC)C(=O)N[C@@H](Cc1ccccc1)C(=O)N[C@@H](CC(C)C)C(=O)CCl [Example 17, MeOSuc--Ala--Ile--Phe--LeuCH2 Cl] (MeOSuc-AIFL-CH2Cl) | +++ (key: -: no activity; +/-: low activity; +: active at 100 μg/mL; ++: active at 50 μg/mL; +++: active at 10 μg/mL; ++++: active at <5 μg/mL)
COC(=O)CCC(=O)N[C@@H](Cc1ccccc1)C(=O)NCC(=O)N[C@@H](CC(C)C)C(=O)N[C@@H](CCC(=O)OC)C(=O)CCl [Example 18, MeOSuc--Phe--Gly--Leu--Glu(OCH3)CH2 Cl] (MeOSuc-FGLE(OMe)-CH2Cl) | ++++ (key: -: no activity; +/-: low activity; +: active at 100 μg/mL; ++: active at 50 μg/mL; +++: active at 10 μg/mL; ++++: active at <5 μg/mL)
CCC(C)C(NC(=O)C(C)NC(=O)CCC(=O)OC)C(=O)NC(Cc1ccccc1)C(=O)NC(CCC(=O)OC)C(=O)CCl (stereo not drawn) [Example 19, MeOSuc--Ala--Ile--Phe--Glu(OCH3)CH2 Cl] (MeOSuc-AIFE(OMe)-CH2Cl; configuration not given here) | +++ (key: -: no activity; +/-: low activity; +: active at 100 μg/mL; ++: active at 50 μg/mL; +++: active at 10 μg/mL; ++++: active at <5 μg/mL)
C[C@H](NC(=O)CNC(=O)[C@H](Cc1ccccc1)NC(=O)OCc1ccccc1)C(=O)N[C@@H](Cc1ccc(O)cc1)C(=O)CCl [Example 20, Z--Phe--Gly--Ala--TyrCH2 Cl] (Cbz-FGAY-CH2Cl) | ++ (key: -: no activity; +/-: low activity; +: active at 100 μg/mL; ++: active at 50 μg/mL; +++: active at 10 μg/mL; ++++: active at <5 μg/mL)

Tested on: human HeLa-O cells
Assay: not given
Conditions: not given

SMILES | Cytotoxicity first detected at a concentration
CC(C)C[C@H](NC(=O)[C@H](CC(C)C)NC(=O)CNC(=O)[C@H](Cc1ccccc1)NC(=O)OCc1ccccc1)C(=O)CCl [Example 12, N-carbobenzoxy-L-phenylalanyl-L-glycyl-L-leucyl-L-leucine chloromethyl ketone] (Cbz-FGLL-CH2Cl) | about 15 μg/mL
